{"source": "ChEMBL document CHEMBL1144272", "about": "“Generation of a new class of hNK(2) receptor ligands using the 'fragment approach'” (Bioorg Med Chem Lett, 2005)", "data": [{"target": "T1, Substance-K receptor (Homo sapiens, UniProt P21452)", "T1 sequence (P21452 whole entry)": "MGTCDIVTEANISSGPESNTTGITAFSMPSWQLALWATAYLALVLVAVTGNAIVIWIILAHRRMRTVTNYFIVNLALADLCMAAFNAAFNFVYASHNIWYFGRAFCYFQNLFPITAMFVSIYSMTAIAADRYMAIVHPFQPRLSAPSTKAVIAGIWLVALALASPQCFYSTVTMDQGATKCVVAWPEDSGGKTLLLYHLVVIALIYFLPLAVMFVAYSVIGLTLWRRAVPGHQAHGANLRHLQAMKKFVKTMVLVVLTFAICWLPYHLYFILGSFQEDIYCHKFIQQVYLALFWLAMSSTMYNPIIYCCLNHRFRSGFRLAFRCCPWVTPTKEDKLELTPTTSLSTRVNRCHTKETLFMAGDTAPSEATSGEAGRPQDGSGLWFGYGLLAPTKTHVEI", "assay": "Binding affinity for human tachykinin receptor 2 was measured by using [125I]NKA as radio ligand", "units": {"Ki": "µM"}, "values": [{"smiles": "CC(C)(Oc1ccc(-c2ccccc2)cc1)C(=O)N[C@@H](Cc1ccccc1)C(=O)NCCCN1CCOCC1", "Ki": 7.9}, {"smiles": "COc1cc(COc2ccc(NC(=O)N[C@H](Cc3ccccc3)C(=O)NCCCN3CCOCC3)cc2)cc(OC)c1", "Ki": "> 1"}, {"smiles": "Cc1ccc(COc2ccc(NC(=O)N[C@@H](Cc3ccccc3)C(=O)NCCCN3CCOCC3)cc2)cc1", "Ki": 0.79}, {"smiles": "O=C(NCCCN1CCOCC1)[C@@H](Cc1ccccc1)NC(=O)N1CCN(c2ccccc2)CC1", "Ki": "> 3"}, {"smiles": "CC(C)c1ccc(OC(C)(C)C(=O)N[C@H](Cc2ccccc2)C(=O)NCCCN2CCOCC2)cc1", "Ki": "> 1"}, {"smiles": "CC(C)c1ccc(OC(C)(C)C(=O)N[C@@H](Cc2ccccc2)C(=O)NCCCN2CCOCC2)cc1", "Ki": "> 1"}, {"smiles": "O=C(Nc1ccc(OCc2cc(F)cc(F)c2)cc1)N[C@@H](Cc1ccccc1)C(=O)NCCCN1CCOCC1", "Ki": 0.5}, {"smiles": "CN(C(=O)N[C@@H](Cc1ccccc1)C(=O)NCCCN1CCOCC1)c1ccc(Oc2ccccc2)cc1", "Ki": "> 3"}, {"smiles": "CN(C(=O)N[C@H](Cc1ccccc1)C(=O)NCCCN1CCOCC1)c1ccc(Oc2ccccc2)cc1", "Ki": "> 3"}, {"smiles": "CC(C)(Oc1cccc(-c2ccccc2)c1)C(=O)N[C@H](Cc1ccccc1)C(=O)NCCCN1CCOCC1", "Ki": 10}, {"smiles": "CN(C(=O)N[C@@H](Cc1ccccc1)C(=O)NCCCN1CCOCC1)c1cccc(Oc2ccccc2)c1", "Ki": "> 3"}, {"smiles": "CC(C)(C)c1ccc(Oc2ccc(NC(=O)N[C@@H](Cc3ccccc3)C(=O)NCCCN3CCOCC3)cc2)cc1", "Ki": 0.05}, {"smiles": "CC(C)(Nc1ccccc1)C(=O)N[C@H](Cc1ccccc1)C(=O)NCCCN1CCOCC1", "Ki": "> 3"}, {"smiles": "CC(C)(C)c1ccc(Oc2ccc(NC(=O)N[C@H](Cc3ccccc3)C(=O)NCCCN3CCOCC3)cc2)cc1", "Ki": 0.12}, {"smiles": "CN(C(=O)N[C@H](Cc1ccccc1)C(=O)NCCCN1CCOCC1)c1cccc(Oc2ccccc2)c1", "Ki": "> 3"}, {"smiles": "O=C(N[C@@H](Cc1ccccc1)C(=O)NCCCN1CCOCC1)C(c1ccccc1)c1ccccc1", "Ki": 2}, {"smiles": "O=C(Nc1ccc(OCc2cc(F)cc(F)c2)cc1)N[C@H](Cc1ccccc1)C(=O)NCCCN1CCOCC1", "Ki": "> 1"}, {"smiles": "O=C(Nc1ccc(Oc2cccc(F)c2)cc1)N[C@@H](Cc1ccccc1)C(=O)NCCCN1CCOCC1", "Ki": 0.2}, {"smiles": "O=C(Nc1ccc(Sc2ccc(F)cc2)cc1)N[C@@H](Cc1ccccc1)C(=O)NCCCN1CCOCC1", "Ki": 0.13}, {"smiles": "O=C(Nc1ccccc1)N[C@H](Cc1ccccc1)C(=O)NCCCN1CCOCC1", "Ki": "> 10"}, {"smiles": "O=C(Nc1ccc(Oc2ccc(F)cc2)cc1)N[C@@H](Cc1ccccc1)C(=O)NCCCN1CCOCC1", "Ki": 0.016}, {"smiles": "O=C(NCCCN1CCOCC1)[C@H](Cc1ccccc1)NC(=O)N1CCN(c2ccccc2)CC1", "Ki": "> 3"}, {"smiles": "CCc1ccc(Oc2ccc(NC(=O)N[C@@H](Cc3ccccc3)C(=O)NCCCN3CCOCC3)cc2)cc1", "Ki": 0.2}, {"smiles": "O=C(Nc1ccc(Oc2ccc(F)cc2)cc1)N[C@H](Cc1ccccc1)C(=O)NCCCN1CCOCC1", "Ki": "> 0.31"}, {"smiles": "O=C(Nc1ccc(Oc2ccccc2)cc1)N[C@H](Cc1ccccc1)C(=O)NCCCN1CCOCC1", "Ki": 0.5}, {"smiles": "O=C(N[C@H](Cc1ccccc1)C(=O)NCCCN1CCOCC1)c1cccc(-c2ccccc2)c1", "Ki": "> 10"}, {"smiles": "O=C(NCCCN1CCOCC1)[C@H](Cc1ccccc1)NC(=O)N1CCCC(O)(c2ccccc2)C1", "note": "(some centres not stated)", "Ki": 6.3}, {"smiles": "O=C(Nc1cccc(Oc2ccccc2)c1)N[C@H](Cc1ccccc1)C(=O)NCCCN1CCOCC1", "Ki": 0.3}, {"smiles": "CC(C)(Nc1ccccc1Oc1ccccc1)C(=O)N[C@@H](Cc1ccccc1)C(=O)NCCCN1CCOCC1", "Ki": "> 3"}, {"smiles": "O=C(N[C@@H](Cc1ccccc1)C(=O)NCCCN1CCOCC1)c1cccc(-c2ccccc2)c1", "Ki": 2}, {"smiles": "O=C(Nc1ccc(OCc2cccc(Cl)c2)cc1)N[C@H](Cc1ccccc1)C(=O)NCCCN1CCOCC1", "Ki": 0.63}, {"smiles": "O=C(Nc1ccc(OCc2cccc(Cl)c2)cc1)N[C@@H](Cc1ccccc1)C(=O)NCCCN1CCOCC1", "Ki": 0.32}, {"smiles": "O=C(Nc1ccc(Oc2ccc(OC(F)(F)F)cc2)cc1)N[C@@H](Cc1ccccc1)C(=O)NCCCN1CCOCC1", "Ki": "> 0.1"}, {"smiles": "O=C(N[C@H](Cc1ccccc1)C(=O)NCCCN1CCOCC1)c1ccccc1", "Ki": "> 10"}, {"smiles": "CC(C)(Oc1ccc(Cl)cc1)C(=O)N[C@H](Cc1ccccc1)C(=O)NCCCN1CCOCC1", "Ki": 0.6}, {"smiles": "CCc1ccc(Oc2ccc(NC(=O)N[C@H](Cc3ccccc3)C(=O)NCCCN3CCOCC3)cc2)cc1", "Ki": 0.63}, {"smiles": "O=C(Nc1ccc(Sc2ccc(F)cc2)cc1)N[C@H](Cc1ccccc1)C(=O)NCCCN1CCOCC1", "Ki": "> 0.2"}, {"smiles": "CC(C)(Oc1ccccc1-c1ccccc1)C(=O)N[C@H](Cc1ccccc1)C(=O)NCCCN1CCOCC1", "Ki": 5}, {"smiles": "O=C(N[C@@H](Cc1ccccc1)C(=O)NCCCN1CCOCC1)c1ccccc1", "Ki": "> 10"}, {"smiles": "CC(C)(Oc1ccc(C(F)(F)F)cc1)C(=O)N[C@H](Cc1ccccc1)C(=O)NCCCN1CCOCC1", "Ki": "> 1"}, {"smiles": "O=C(Nc1ccccc1Oc1ccccc1)N[C@H](Cc1ccccc1)C(=O)NCCCN1CCOCC1", "Ki": "> 10"}, {"smiles": "CN(Cc1ccccc1)C(=O)N[C@@H](Cc1ccccc1)C(=O)NCCCN1CCOCC1", "Ki": 2}, {"smiles": "O=C(Nc1ccc(OCc2ccc(C(F)(F)F)cc2)cc1)N[C@H](Cc1ccccc1)C(=O)NCCCN1CCOCC1", "Ki": 5}, {"smiles": "O=C(Nc1ccc(Oc2ccccc2)cc1)N[C@@H](Cc1ccccc1)C(=O)NCCCN1CCOCC1", "Ki": 1}, {"smiles": "O=C(NCCCN1CCOCC1)[C@H](Cc1ccccc1)NC(=O)N1CCC(Cc2ccccc2)CC1", "Ki": 1.6}, {"smiles": "O=C(Nc1ccc(Oc2cccc(F)c2)cc1)N[C@H](Cc1ccccc1)C(=O)NCCCN1CCOCC1", "Ki": "> 1"}, {"smiles": "CC(C)(Oc1ccc(C(F)(F)F)cc1)C(=O)N[C@@H](Cc1ccccc1)C(=O)NCCCN1CCOCC1", "Ki": "> 1"}, {"smiles": "O=C(Nc1ccc(Oc2ccc(C(F)(F)F)cc2)cc1)N[C@@H](Cc1ccccc1)C(=O)NCCCN1CCOCC1", "Ki": 0.25}, {"smiles": "CC(C)c1cccc(OC(C)(C)C(=O)N[C@@H](Cc2ccccc2)C(=O)NCCCN2CCOCC2)c1", "Ki": "> 1"}, {"smiles": "O=C(Nc1cccc(Oc2ccccc2)c1)N[C@@H](Cc1ccccc1)C(=O)NCCCN1CCOCC1", "Ki": 0.2}, {"smiles": "O=C(N[C@H](Cc1ccccc1)C(=O)NCCCN1CCOCC1)C(c1ccccc1)c1ccccc1", "Ki": "> 10"}, {"smiles": "CC(C)(Oc1ccc(Cl)cc1)C(=O)N[C@@H](Cc1ccccc1)C(=O)NCCCN1CCOCC1", "Ki": 1.6}, {"smiles": "O=C(Nc1ccccc1Oc1ccccc1)N[C@@H](Cc1ccccc1)C(=O)NCCCN1CCOCC1", "Ki": 5}, {"smiles": "CN(C(=O)N[C@@H](Cc1ccccc1)C(=O)NCCCN1CCOCC1)c1cccc(Oc2cccc(F)c2)c1", "Ki": "> 1"}, {"smiles": "COc1ccc(Oc2ccc(NC(=O)N[C@H](Cc3ccccc3)C(=O)NCCCN3CCOCC3)cc2)cc1", "Ki": "> 1"}, {"smiles": "CC(C)(Nc1ccccc1)C(=O)N[C@@H](Cc1ccccc1)C(=O)NCCCN1CCOCC1", "Ki": "> 3"}, {"smiles": "CN(Cc1ccccc1)C(=O)N[C@H](Cc1ccccc1)C(=O)NCCCN1CCOCC1", "Ki": 3}, {"smiles": "O=C(N[C@H](Cc1ccccc1)C(=O)NCCCN1CCOCC1)c1ccccc1-c1ccccc1", "Ki": 3}, {"smiles": "O=C(NCCCN1CCOCC1)[C@@H](Cc1ccccc1)NC(=O)N1CCC(Cc2ccccc2)CC1", "Ki": 2}, {"smiles": "O=C(NCCCN1CCOCC1)[C@@H](Cc1ccccc1)NC(=O)N(c1ccccc1)c1ccccc1", "Ki": "> 3"}, {"smiles": "CC(C)(Oc1cccc(-c2ccccc2)c1)C(=O)N[C@@H](Cc1ccccc1)C(=O)NCCCN1CCOCC1", "Ki": 6.3}, {"smiles": "COc1cc(COc2ccc(NC(=O)N[C@@H](Cc3ccccc3)C(=O)NCCCN3CCOCC3)cc2)cc(OC)c1", "Ki": 0.2}, {"smiles": "O=C(NCCCN1CCOCC1)[C@H](Cc1ccccc1)NC(=O)N(c1ccccc1)c1ccccc1", "Ki": "> 3"}, {"smiles": "CC(C)c1cccc(OC(C)(C)C(=O)N[C@H](Cc2ccccc2)C(=O)NCCCN2CCOCC2)c1", "Ki": "> 1"}, {"smiles": "O=C(Nc1ccc(Oc2ccc(C(F)(F)F)cc2)cc1)N[C@H](Cc1ccccc1)C(=O)NCCCN1CCOCC1", "Ki": "> 1"}, {"smiles": "Cc1ccc(COc2ccc(NC(=O)N[C@H](Cc3ccccc3)C(=O)NCCCN3CCOCC3)cc2)cc1", "Ki": "> 1"}, {"smiles": "O=C(NCCCN1CCOCC1)[C@@H](Cc1ccccc1)NC(=O)N1CCCC(O)(c2ccccc2)C1", "note": "(some centres not stated)", "Ki": "> 10"}, {"smiles": "O=C(Nc1ccc(Oc2ccc(OC(F)(F)F)cc2)cc1)N[C@H](Cc1ccccc1)C(=O)NCCCN1CCOCC1", "Ki": "> 1"}, {"smiles": "CC(C)(Oc1cccc(Cl)c1)C(=O)N[C@H](Cc1ccccc1)C(=O)NCCCN1CCOCC1", "Ki": 0.31}, {"smiles": "O=C(N[C@@H](Cc1ccccc1)C(=O)NCCCN1CCOCC1)c1ccccc1-c1ccccc1", "Ki": "> 10"}, {"smiles": "CC(C)c1ccc(Oc2ccc(NC(=O)N[C@H](Cc3ccccc3)C(=O)NCCCN3CCOCC3)cc2)cc1", "Ki": 0.2}, {"smiles": "CC(C)(Oc1cccc(Cl)c1)C(=O)N[C@@H](Cc1ccccc1)C(=O)NCCCN1CCOCC1", "Ki": "> 1"}, {"smiles": "O=C(Nc1ccc(OCc2ccc(C(F)(F)F)cc2)cc1)N[C@@H](Cc1ccccc1)C(=O)NCCCN1CCOCC1", "Ki": 0.79}, {"smiles": "CC(C)(Oc1ccccc1-c1ccccc1)C(=O)N[C@@H](Cc1ccccc1)C(=O)NCCCN1CCOCC1", "Ki": 3.1}, {"smiles": "CC(C)(Nc1ccccc1Oc1ccccc1)C(=O)N[C@H](Cc1ccccc1)C(=O)NCCCN1CCOCC1", "Ki": "> 3"}, {"smiles": "CC(C)(Oc1ccc(-c2ccccc2)cc1)C(=O)N[C@H](Cc1ccccc1)C(=O)NCCCN1CCOCC1", "Ki": 7.9}, {"smiles": "COc1ccc(Oc2ccc(NC(=O)N[C@@H](Cc3ccccc3)C(=O)NCCCN3CCOCC3)cc2)cc1", "Ki": 0.31}, {"smiles": "O=C(Nc1ccccc1)N[C@@H](Cc1ccccc1)C(=O)NCCCN1CCOCC1", "Ki": "> 10"}, {"smiles": "CN(C(=O)N[C@H](Cc1ccccc1)C(=O)NCCCN1CCOCC1)c1cccc(Oc2cccc(F)c2)c1", "Ki": "> 1"}, {"smiles": "CC(C)(Oc1ccc(F)cc1)C(=O)N[C@H](Cc1ccccc1)C(=O)NCCCN1CCOCC1", "Ki": "> 1"}, {"smiles": "CC(C)c1ccc(Oc2ccc(NC(=O)N[C@@H](Cc3ccccc3)C(=O)NCCCN3CCOCC3)cc2)cc1", "Ki": 0.063}, {"smiles": "CC(C)(Oc1ccc(F)cc1)C(=O)N[C@@H](Cc1ccccc1)C(=O)NCCCN1CCOCC1", "Ki": "> 1"}]}]}
